How the values were obtained:
[1] = Arterial blood pressure measured by carotid catheterisation; format: in vivo; settings: measured by catheterisation of the carotid, result in words
rat = assay: Water and electrolyte movements in ligated intestinal loops of the anaesthetised rat, peptides given by intravenous infusion; format: in vivo; settings: rat duodenal loop, i.v. infusion, dose 50 pmol/100g, 1 h contact; controls (TEMOINS) = 0; (-) absorption, (+) secretion; mean, groups of 8 or more
Protocol: Chez le rat privé d'aliment depuis 45 heures mais recevant de l'eau à volonté, une anesthésie est assurée par le pentobarbital sodique, un cathéter est placé sur une jugulaire, trois anses duodénale, jéjunale et iléale sont constituées entre deux ligatures. Un ml de solution test contenant 70 mM de NaCl, 5,2 mM de KCl, […] de CaCl₂, 10 mM de CO₃Na ET 136 mM de mannitol est instillé dans chaque anse, le PEG 4000 marqué au ³H est utilisé comme marqueur non absorbable, le ²²Na ou le ³⁶Cl comme marqueurs des flux bidirectionnels de sodium ou de chlore. La sorbine ou les peptides de synthèse sont administrés par voie veineuse dans du NaCl à 0,9%, à un débit de 3 ml/h. Après une heure de contact, le liquide restant dans la lumière de l'anse est collecté, le volume et les concentrations de Na, Ca, K, Cl et HCO₃ ainsi que la radioactivité liée au tritium, au chlore ou au sodium sont mesurés.
L'absorption est indiquée par un signe (-), la sécrétion par un signe (+). les résultats concernent des groupes de 8 animaux ou plus M ± SEM ^. P<0.05 ^..P<0.01

## CC[C@H](C)[C@H](NC(=O)[C@H](Cc1ccc(O)cc1)NC(=O)[C@@H](NC(=O)[C@H](CCCNC(=N)N)NC(=O)[C@@H](N)CC(=O)O)C(C)C)C(=O)N[C@@H](Cc1cnc[nH]1)C(=O)N1CCC[C@H]1C(=O)N[C@@H](Cc1ccccc1)C(=O)O [ANGIOTENSINE II, angiotensine II]
[1]
  tension artérielle: augmentation de la tension artérielle

## HEPTAPEPTIDE
rat
  Cl: -36,1 µeq
  Eau: -0,20 ml
  Na: -30,7 µeq

From patent publication EP0348399B1, “SORBIN AND PEPTIDE DERIVATIVES WHICH INCREASE ABORPTION BY THE MUCOUS MEMBRANES” (INSTITUT NATIONAL DE LA SANTE ET DE LA RECHERCHE MEDICALE …, priority 1988, dated 1992)
